Test: Stability of Racecadotril in Beta-HPCD at 40° C., pH 3.6/4.0/4.5 (HPLC)
Format: physicochemical
Protocol: Test Methods Sample Preparation: • 1. Pipet 1 mL of Racecadotril solution into a 100 mL volumetric flask (V.F.) • 2. Dilute to volume with the same buffer used in the solution preparation. • 3. Further dilute the sample solution to about 0.1 mg/mL if necessary. […] Parameters may be modified to optimize chromatography. • The assay of Racecadotril is determined by using the external standard injected. The degradation products levels are determined by % peak area relative to the Racecadotril peak. Chromatographic Conditions (European Pharmacopoeia Racecadotril Method): [table] Gradient Table: [table] Mobil Phase A: Phosphate buffer, pH 2.5 (Buffer prep: dissolve 1 g of potassium dihydrogen phosphate in water, adjust to pH 2.5 with phosphoric acid, dilute to 1000 mL with water) Mobil Phase B: 100% Acetonitrile Stability of Racecadotril in Beta-Hydroxypropyl-Cyclodextrin (Beta-HPCD) at 40° C.

[1] = Acetate, pH 3.6, 40° C., 1 week
[2] = Acetate, pH 3.6, 40° C., 2 week
[3] = Acetate, pH 3.6, 40° C., 3 week
[4] = Acetate, pH 3.6, 40° C., 4 week
[5] = Acetate, pH 3.6, 40° C., 6 week
[6] = Acetate, pH 3.6, 40° C., 8 week
[7] = Acetate, pH 3.6, 40° C., Initial
[8] = Acetate, pH 4.0, 40° C., 1 week
[9] = Acetate, pH 4.0, 40° C., 2 week
[10] = Acetate, pH 4.0, 40° C., 3 week
[11] = Acetate, pH 4.0, 40° C., 4 week
[12] = Acetate, pH 4.0, 40° C., 6 week
[13] = Acetate, pH 4.0, 40° C., 8 week
[14] = Acetate, pH 4.0, 40° C., Initial
[15] = Acetate, pH 4.5, 40° C., 1 week
[16] = Acetate, pH 4.5, 40° C., 2 week
[17] = Acetate, pH 4.5, 40° C., 3 week
[18] = Acetate, pH 4.5, 40° C., 4 week
[19] = Acetate, pH 4.5, 40° C., 6 week
[20] = Acetate, pH 4.5, 40° C., 8 week
[21] = Acetate, pH 4.5, 40° C., Initial
[22] = Citrate, pH 3.6, 40° C., 1 week
[23] = Citrate, pH 3.6, 40° C., 2 week
[24] = Citrate, pH 3.6, 40° C., 3 week
[25] = Citrate, pH 3.6, 40° C., 4 week
[26] = Citrate, pH 3.6, 40° C., 6 week
[27] = Citrate, pH 3.6, 40° C., 8 week
[28] = Citrate, pH 3.6, 40° C., Initial
[29] = Citrate, pH 4.0, 40° C., 1 week
[30] = Citrate, pH 4.0, 40° C., 2 week
[31] = Citrate, pH 4.0, 40° C., 3 week
[32] = Citrate, pH 4.0, 40° C., 4 week
[33] = Citrate, pH 4.0, 40° C., 6 week
[34] = Citrate, pH 4.0, 40° C., 8 week
[35] = Citrate, pH 4.0, 40° C., Initial
[36] = Citrate, pH 4.5, 40° C., 1 week
[37] = Citrate, pH 4.5, 40° C., 2 week
[38] = Citrate, pH 4.5, 40° C., 3 week
[39] = Citrate, pH 4.5, 40° C., 4 week
[40] = Citrate, pH 4.5, 40° C., 6 week
[41] = Citrate, pH 4.5, 40° C., 8 week
[42] = Citrate, pH 4.5, 40° C., Initial

## CC(=O)SCC(Cc1ccccc1)C(=O)NCC(=O)OCc1ccccc1 (racemic) [Racecadotril]
[1]
  Benz Alcohol: 0.69%
  Impurity C: 0.93%
  Impurity G: 1.17%
  RAC: 97.21%
  Thiorphan: 0.00%
[2]
  Benz Alcohol: 1.40%
  Impurity C: 1.87%
  Impurity G: 1.74%
  RAC: 94.88%
  Thiorphan: 0.11%
[3]
  Benz Alcohol: 2.13%
  Impurity C: 2.78%
  Impurity G: 1.93%
  RAC: 93.01%
  Thiorphan: 0.14%
[4]
  Benz Alcohol: 2.84%
  Impurity C: 3.56%
  Impurity G: 3.00%
  RAC: 90.15%
  Thiorphan: 0.30%
[5]
  Benz Alcohol: 4.33%
  Impurity C: 5.17%
  Impurity G: 3.82%
  RAC: 85.75%
  Thiorphan: 0.57%
[6]
  Benz Alcohol: 5.78%
  Impurity C: 6.33%
  Impurity G: 5.28%
  RAC: 80.68%
  Thiorphan: 1.00%
[7]
  Benz Alcohol: 0.00%
  Impurity C: 0.00%
  Impurity G: 0.07%
  RAC: 99.93%
  Thiorphan: 0.00%
[8]
  Benz Alcohol: 0.70%
  Impurity C: 0.93%
  Impurity G: 1.36%
  RAC: 97.01%
  Thiorphan: 0.00%
[9]
  Benz Alcohol: 1.39%
  Impurity C: 1.82%
  Impurity G: 1.70%
  RAC: 95.02%
  Thiorphan: 0.07%
[10]
  Benz Alcohol: 2.09%
  Impurity C: 2.83%
  Impurity G: 2.66%
  RAC: 92.23%
  Thiorphan: 0.19%
[11]
  Benz Alcohol: 2.84%
  Impurity C: 3.52%
  Impurity G: 3.62%
  RAC: 89.50%
  Thiorphan: 0.38%
[12]
  Benz Alcohol: 4.28%
  Impurity C: 5.16%
  Impurity G: 5.67%
  RAC: 83.98%
  Thiorphan: 0.71%
[13]
  Benz Alcohol: 5.37%
  Impurity C: 6.20%
  Impurity G: 8.46%
  RAC: 78.53%
  Thiorphan: 1.19%
[14]
  Benz Alcohol: 0.00%
  Impurity C: 0.00%
  Impurity G: 0.00%
  RAC: 100.00%
  Thiorphan: 0.00%
[15]
  Benz Alcohol: 0.02%
  Impurity C: 0.21%
  Impurity G: 3.17%
  RAC: 96.33%
  Thiorphan: 0.02%
[16]
  Benz Alcohol: 0.40%
  Impurity C: 0.40%
  Impurity G: 6.50%
  RAC: 92.61%
  Thiorphan: 0.04%
[17]
  Benz Alcohol: 0.59%
  Impurity C: 0.58%
  Impurity G: 9.43%
  RAC: 89.29%
  Thiorphan: 0.06%
[18]
  Benz Alcohol: 0.79%
  Impurity C: 0.72%
  Impurity G: 11.84%
  RAC: 86.50%
  Thiorphan: 0.11%
[19]
  Benz Alcohol: 1.14%
  Impurity C: 1.04%
  Impurity G: 17.32%
  RAC: 80.25%
  Thiorphan: 0.20%
[20]
  Benz Alcohol: 1.51%
  Impurity C: 1.25%
  Impurity G: 21.73%
  RAC: 75.06%
  Thiorphan: 0.36%
[21]
  Benz Alcohol: 0.02%
  Impurity C: 0.02%
  Impurity G: 0.21%
  RAC: 99.68%
  Thiorphan: 0.01%
[22]
  Benz Alcohol: 0.79%
  Impurity C: 0.98%
  Impurity G: 1.78%
  RAC: 96.45%
  Thiorphan: 0.00%
[23]
  Benz Alcohol: 1.72%
  Impurity C: 2.30%
  Impurity G: 3.81%
  RAC: 92.01%
  Thiorphan: 0.13%
[24]
  Benz Alcohol: 2.59%
  Impurity C: 3.36%
  Impurity G: 5.52%
  RAC: 88.22%
  Thiorphan: 0.31%
[25]
  Benz Alcohol: 3.38%
  Impurity C: 4.23%
  Impurity G: 7.38%
  RAC: 84.51%
  Thiorphan: 0.47%
[26]
  Benz Alcohol: 5.09%
  Impurity C: 6.13%
  Impurity G: 9.72%
  RAC: 77.91%
  Thiorphan: 1.11%
[27]
  Benz Alcohol: 6.64%
  Impurity C: 7.54%
  Impurity G: 12.47%
  RAC: 71.51%
  Thiorphan: 1.80%
[28]
  Benz Alcohol: 0.00%
  Impurity C: 0.00%
  Impurity G: 0.09%
  RAC: 99.91%
  Thiorphan: 0.00%
[29]
  Benz Alcohol: 0.89%
  Impurity C: 1.23%
  Impurity G: 1.95%
  RAC: 95.93%
  Thiorphan: 0.00%
[30]
  Benz Alcohol: 1.41%
  Impurity C: 1.82%
  Impurity G: 3.47%
  RAC: 93.19%
  Thiorphan: 0.11%
[31]
  Benz Alcohol: 2.36%
  Impurity C: 2.82%
  Impurity G: 4.79%
  RAC: 89.81%
  Thiorphan: 0.21%
[32]
  Benz Alcohol: 2.79%
  Impurity C: 3.43%
  Impurity G: 6.57%
  RAC: 86.78%
  Thiorphan: 0.40%
[33]
  Benz Alcohol: 4.19%
  Impurity C: 4.98%
  Impurity G: 9.24%
  RAC: 80.70%
  Thiorphan: 0.85%
[34]
  Benz Alcohol: 5.54%
  Impurity C: 6.22%
  Impurity G: 11.26%
  RAC: 75.46%
  Thiorphan: 1.42%
[35]
  Benz Alcohol: 0.00%
  Impurity C: 0.00%
  Impurity G: 0.00%
  RAC: 100.00%
  Thiorphan: 0.00%
[36]
  Benz Alcohol: 0.22%
  Impurity C: 0.18%
  Impurity G: 3.15%
  RAC: 96.44%
  Thiorphan: 0.01%
[37]
  Benz Alcohol: 0.40%
  Impurity C: 0.36%
  Impurity G: 6.04%
  RAC: 93.19%
  Thiorphan: 0.03%
[38]
  Benz Alcohol: 0.59%
  Impurity C: 0.52%
  Impurity G: 8.66%
  RAC: 90.20%
  Thiorphan: 0.06%
[39]
  Benz Alcohol: 0.79%
  Impurity C: 0.62%
  Impurity G: 11.16%
  RAC: 87.41%
  Thiorphan: 0.10%
[40]
  Benz Alcohol: 1.14%
  Impurity C: 0.90%
  Impurity G: 15.86%
  RAC: 82.05%
  Thiorphan: 0.17%
[41]
  Benz Alcohol: 1.51%
  Impurity C: 1.11%
  Impurity G: 19.95%
  RAC: 77.34%
  Thiorphan: 0.29%
[42]
  Benz Alcohol: 0.02%
  Impurity C: 0.01%
  Impurity G: 0.19%
  RAC: 99.71%
  Thiorphan: 0.01%

From US9114171B2, “Racecadotril liquid compositions” (McNeil-PPC, Inc., priority 2012, dated 2015)
